Where two headings read alike, the source gives them in different places.

The values that follow come from patent US10865384B2, “2,4,5-tri-substituted azole-based casein kinase 1 inhibitors as inducers for cardiomyogenesis” (AGENCY FOR SCIENCE, TECHNOLOGY AND RESEARCH, priority 2014, dated 2020).

One experiment addresses CK1ϵ (Homo sapiens (Human), UniProt P49674). In words: LanthaScreen Eu kinase binding assay, CK1ϵ. On the technique in general: In TR-FRET formats the signal depends on donor and acceptor labels being close together.
The target of the next experiment is p38α MAPK (Homo sapiens (Human), UniProt Q16539). The experiment in a line: LanthaScreen Eu kinase binding assay, p38 MAPK (IM-32 to IM-44). Conditions: LanthaScreen Eu binding assay (IM-32 to IM-44); read-out: p38α MAPK IC50 ± SEM. The procedure:
The p38 MAPK IC50 values of selected compounds except IM-32 to IM-44 were determined using the HitHunter™ p38 MAP kinase binding assay from DiscoveRx Corporation (Fremont, Calif., USA). The p38 MAPK IC50 values of IM-32 to IM-44 and the CK1 IC50 values of selected compounds were determined using LanthaScreen™ Eu kinase binding assay from Invitrogen (Life Technologies, Carlsbad, Calif., USA). The assays were performed following the manufacturers' protocols in white 384-well plates (Cat. No. 3572; Corning Incorporated, Corning, N.Y., USA). SB203580 was used as the control in all assays. For the HitHunter™ p38 MAP kinase binding assay the compounds were dissolved in DMSO (5 mM stocks) and diluted to a final concentration of 2% (vol/vol) DMSO for all assays. Recombinant GST-tagged active p38α MAP kinase enzyme (Millipore, Billerica, Mass., USA) was used for the HitHunter™ p38 MAP kinase binding assay. For the LanthaScreen™ Eu kinase binding assay the compounds were dissolved in DMSO (5 mM stocks) and diluted to a final concentration of 1% (vol/vol) DMSO for all assays. Each data point was done in triplicate. The assay was run using JANUS Automated Workstation according to the protocol developed using WinPREP software (Perkin Elmer Inc., Waltham, Mass., USA). Tecan Infinite® M1000 microplate reader (Tecan Group Ltd., Minnedorf, Switzerland) was used for luminescence measurements (HitHunter™ p38 MAP kinase binding assay) and fluorescence measurements (LanthaScreen™ Eu kinase binding assay; ex=340 nm, em=665, 615 nm). All data analysis was performed using GraphPad Prism 5 software (GraphPad Software Inc.). Inhibition curves and IC50 values were generated by nonlinear regression analysis and data represent mean±SEM.
The in vitro IC50 values of the synthesized compounds against the relevant kinase targets are summarized. The IC50 values were determined using either the HitHunter™ p38 MAPK binding assay from DiscoveRx or the LanthaScreen™ Eu kinase binding assay (for p38alpha MAPK, CK1delta, and CK1epsilon) from Invitrogen.

The next experiment addresses CK1δ (Homo sapiens (Human), UniProt P48730). The experiment in a line: LanthaScreen Eu kinase binding assay, CK1δ.
The subject of another experiment is hESC3 Nkx2.5eGFP/w cells. In words: Differentiation in 96-U bottom ultra-low attachment well plates, GFP area imaging. Conditions: 5 μM; for Average GFP %: after CHIR99021, read on day 14, GFP area over embryoid body size; for Average GFP μm^2 / Average Area μm^2: day 14; for Average Area μm^2: embryoid body size. The experiment is classed as cell-based, human.
The subject of a further experiment is H3 hESCs Nkx2.5eGFP/w. The experiment in a line: High yield cardiomyocyte differentiation after 24 h CHIR99021 pre-treatment. The format is cell-based, human. Conditions: CHIR99021 only; CHIR99021 with SB203580 (days 1-8); CHIR99021 with IM-31 (days 4-8).

p38α MAPK, sequence (Q16539 whole entry, looked up): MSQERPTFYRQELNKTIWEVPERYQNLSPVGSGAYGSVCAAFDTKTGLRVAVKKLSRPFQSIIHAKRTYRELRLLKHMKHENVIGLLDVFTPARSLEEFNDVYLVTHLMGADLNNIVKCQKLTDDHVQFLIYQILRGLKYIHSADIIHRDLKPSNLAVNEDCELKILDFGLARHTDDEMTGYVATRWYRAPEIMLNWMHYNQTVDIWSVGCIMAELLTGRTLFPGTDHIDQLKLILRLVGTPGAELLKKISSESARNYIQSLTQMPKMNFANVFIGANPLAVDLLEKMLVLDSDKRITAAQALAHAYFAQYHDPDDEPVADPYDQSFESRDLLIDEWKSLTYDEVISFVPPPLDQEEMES
CK1δ, sequence (P48730 whole entry): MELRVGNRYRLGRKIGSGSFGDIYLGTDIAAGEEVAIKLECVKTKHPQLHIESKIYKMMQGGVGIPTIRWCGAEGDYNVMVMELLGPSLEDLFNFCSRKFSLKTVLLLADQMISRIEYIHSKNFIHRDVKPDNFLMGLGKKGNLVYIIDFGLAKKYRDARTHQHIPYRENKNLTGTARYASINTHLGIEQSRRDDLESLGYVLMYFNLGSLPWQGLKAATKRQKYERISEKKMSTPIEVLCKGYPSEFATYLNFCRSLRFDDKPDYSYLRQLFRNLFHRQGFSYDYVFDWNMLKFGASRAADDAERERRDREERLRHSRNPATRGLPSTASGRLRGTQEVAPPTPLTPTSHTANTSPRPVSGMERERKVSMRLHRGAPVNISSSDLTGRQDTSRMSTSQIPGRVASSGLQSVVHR
CK1ϵ, sequence (P49674 whole entry): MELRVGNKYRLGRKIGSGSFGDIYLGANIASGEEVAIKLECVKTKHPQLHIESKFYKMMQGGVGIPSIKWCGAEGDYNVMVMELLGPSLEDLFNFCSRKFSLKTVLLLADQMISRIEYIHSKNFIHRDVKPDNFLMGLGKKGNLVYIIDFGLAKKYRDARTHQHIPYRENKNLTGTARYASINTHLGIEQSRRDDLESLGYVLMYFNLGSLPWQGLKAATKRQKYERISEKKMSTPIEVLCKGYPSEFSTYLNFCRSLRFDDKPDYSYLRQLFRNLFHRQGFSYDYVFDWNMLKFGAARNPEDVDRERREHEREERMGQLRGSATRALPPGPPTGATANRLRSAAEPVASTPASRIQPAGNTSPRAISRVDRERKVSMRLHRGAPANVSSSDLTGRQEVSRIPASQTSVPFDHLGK

By inhibition is commonly meant the drop in the measured response relative to a control, in per cent. Lower therefore signals little suppression. By IC50 is commonly meant the concentration needed to halve the response being measured. Turning to `Cc1cccc(-c2nc(C(O)C3=CCCCC3)[nH]c2-c2ccncc2)c1` (racemic) [IM-43, Cyclohex-1-en-1-yl(5(4)-(pyridin-4-yl)-4(5)-(m-tolyl)-1H-imidazol-2-yl)methanol], the inhibition at 1 µM at CK1ϵ is 22%. Besides, at p38α MAPK, the 50% inhibitory concentration (IC50) came out at 11 ± 2 nM. Besides, the “CK1δ inhibition at 1 μM” value at CK1δ (at 1 μM) is “No inhibition at 1 μM”.
For `Cc1cccc(-c2nc(-c3ccc([N+](=O)[O-])cc3)[nH]c2-c2ccncc2)c1` [IM-32, 4-(2-(4-nitrophenyl)-4(5)-(m-tolyl)-1H-imidazol-5(4)-yl)pyridine], the inhibition at 1 µM is 47% at CK1ϵ and 31% on CK1δ. Further, at p38α MAPK, the half-maximal inhibitory concentration (IC50) came out at 4.4 ± 2.4 nM.
For the molecule `Cc1cccc(-c2nc(-c3ccc(S(C)(=O)=O)cc3)[nH]c2-c2ccncc2)c1` [IM-33, 4-(2-(4-(methylsulfonyl)phenyl)-4(5)-(m-tolyl)-1H-imidazol-5(4)-yl)pyridine], the inhibition at 1 µM at CK1ϵ worked out at 36%; at CK1δ it was 23%. Also, the 50% inhibitory concentration (IC50) on p38α MAPK was found to be 9.5 ± 2.8 nM.
Turning to `Cc1cccc(-c2nc(-c3ccc(N)cc3)[nH]c2-c2ccncc2)c1` [IM-34, 4-(5(4)-(pyridin-4-yl)-4(5)-(m-tolyl)-1H-imidazol-2-yl)aniline], the figures for the inhibition at 1 µM at CK1ϵ and at CK1δ were 28% and 24%, respectively. The IC50 on p38α MAPK is 2.8 ± 2 nM.
In the same order, the values of `Cc1cccc(-c2nc(-c3ccc(NS(C)(=O)=O)cc3)[nH]c2-c2ccncc2)c1` [IM-35, N-(4-(5(4)-(pyridin-4-yl)-4(5)-(m-tolyl)-1H-imidazol-2-yl)phenyl)methanesulfonamide] are 40%, 13% and 5 nM.
Take `Cc1cccc(-c2nc(-c3ccc(C#N)cc3)[nH]c2-c2ccncc2)c1` [IM-36, 4-(5(4)-(pyridin-4-yl)-4(5)-(m-tolyl)-1H-imidazol-2-yl)benzonitrile]: the inhibition at 1 µM on CK1ϵ turned out to be 36%; on CK1δ, 11%. Also, the IC50 on p38α MAPK came to 5.3 ± 0.5 nM.
On to `Cc1cccc(-c2nc(-c3ccc(C(=N)NO)cc3)[nH]c2-c2ccncc2)c1` [IM-37, (Z)—N′-hydroxy-4-(5(4)-(pyridin-4-yl)-4(5)-(m-tolyl)-1H-imidazol-2-yl)benzimidamide], for which the IC50 was found to be 295 nM at CK1ϵ (Table 3, read-out: IC50 Ck1ε); 295 ± 48 nM on CK1ϵ (read-out: CK1ϵ IC50 ± SEM); 3.2 ± 0.3 nM on p38α MAPK; 889 nM on CK1δ (Table 3, read-out: IC50 CK1δ); 889 ± 290 nM on CK1δ (read-out: CK1δ IC50 ± SEM).
Turning to `Cc1cccc(-c2nc(-c3ccc(C(=O)O)cc3)[nH]c2-c2ccncc2)c1` [IM-38, 4-(5(4)-(pyridin-4-yl)-4(5)-(m-tolyl)-1H-imidazol-2-yl)benzoic acid], the half-inhibitory concentration (IC50) on CK1ϵ (Table 3, read-out: IC50 Ck1ε) amounted to 1060 nM; on CK1ϵ (read-out: CK1ϵ IC50 ± SEM), 1060 ± 108 nM; at p38α MAPK, 3.3 ± 1.1 nM; on CK1δ (Table 3, read-out: IC50 CK1δ), 4710 nM; at CK1δ (read-out: CK1δ IC50 ± SEM), 4710 ± 1620 nM.
The like results for `Cc1cccc(-c2nc(-c3ccc(C(N)=O)cc3)[nH]c2-c2ccncc2)c1` [IM-39, 4-(5(4)-(pyridin-4-yl)-4(5)-(m-tolyl)-1H-imidazol-2-yl)benzamide] were, in that order, 300 nM, 300 ± 16 nM, 2.7 ± 0.3 nM, 787 nM and 787 ± 98 nM.
`COC(=O)c1ccc(-c2nc(-c3cccc(C)c3)c(-c3ccncc3)[nH]2)cc1` [IM-40, Methyl 4-(5(4)-(pyridin-4-yl)-4(5)-(m-tolyl)-1H-imidazol-2-yl)benzoate]: the inhibition at 1 µM is 43% on CK1ϵ and 10% on CK1δ. For the same molecule, the half-maximal inhibitory concentration (IC50) on p38α MAPK was determined as 3.7 ± 0.7 nM.
With `C[S+]([O-])c1ccc(-c2nc(-c3ccc(F)cc3)c(-c3ccncc3)[nH]2)cc1` (stereo not drawn) [SB203580, reference compound], in the experiment on hESC3 Nkx2.5eGFP/w cells (Induction Day 2), the “Average GFP %” value is 34.6%, the “Average GFP μm^2” value is listed as 217.8 μm^2 and the “Average Area μm^2” value came to 655.4 μm^2. In the experiment with hESC3 Nkx2.5eGFP/w cells (Induction Day 3), the “Average GFP %” value is 3.7%, the “Average GFP μm^2” value came to 40.2 μm^2 and the “Average Area μm^2” value was 814.2 μm^2. In addition, in the experiment with H3 hESCs Nkx2.5eGFP/w, the Average beating frequency is 25-30 beats per minute, the “Beat count (percentage of EBs contracting within 10 s)” value is “over 75%” and the Beating area is given as over 5 mm^2.
